Source: patent publication US8551988B2, “Benzimidazole derivatives: preparation and pharmaceutical applications” (Mei Pharma, Inc., priority 2003, dated 2013)
Like-named read-outs stand apart in the source and are kept apart here.

How the values were obtained:
[1] = target: HDAC8 enzyme (recombinant GST-HDAC8) (Homo sapiens (Human), UniProt Q9BY41); experiment: In vitro HDAC assay (BIOMOL fluorescent-based HDAC activity assay), HDAC8; type: biochemical
Protocol: (§1) The assay has been carried out in 96 well format and the BIOMOL fluorescent-based HDAC activity assay has been applied. […] Flur de lys Developer was added and the reaction was incubated for 10 min. Briefly, deacetylation of the substrate sensitizes it to the developer, which then generates a fluorophore (symbol). The fluorophore is excited with 360 nm light and the emitted light (460 nm) is detected on a fluorometric plate reader (Tecan Ultra Microplate detection system, Tecan Group Ltd.).
(§2) The analytical software, Prism 3.0 has been used to generate IC50 from a series of data.

[2] = target: HDAC1 enzyme (recombinant GST-HDAC1) (Homo sapiens (Human), UniProt Q13547); experiment: In vitro HDAC assay (BIOMOL fluorescent-based HDAC activity assay), HDAC1; type: biochemical
Protocol: as §1, §2

[3] = read-out: HDAC8 Enzyme Activity IC50
[4] = read-out: HDAC1 Enzyme Activity IC50
[5] = Free base, read-out: IC50 (HDAC8)
[6] = Free base, read-out: IC50 (HDAC1)

Chain of HDAC1 enzyme (recombinant GST-HDAC1) (Q13547 whole entry): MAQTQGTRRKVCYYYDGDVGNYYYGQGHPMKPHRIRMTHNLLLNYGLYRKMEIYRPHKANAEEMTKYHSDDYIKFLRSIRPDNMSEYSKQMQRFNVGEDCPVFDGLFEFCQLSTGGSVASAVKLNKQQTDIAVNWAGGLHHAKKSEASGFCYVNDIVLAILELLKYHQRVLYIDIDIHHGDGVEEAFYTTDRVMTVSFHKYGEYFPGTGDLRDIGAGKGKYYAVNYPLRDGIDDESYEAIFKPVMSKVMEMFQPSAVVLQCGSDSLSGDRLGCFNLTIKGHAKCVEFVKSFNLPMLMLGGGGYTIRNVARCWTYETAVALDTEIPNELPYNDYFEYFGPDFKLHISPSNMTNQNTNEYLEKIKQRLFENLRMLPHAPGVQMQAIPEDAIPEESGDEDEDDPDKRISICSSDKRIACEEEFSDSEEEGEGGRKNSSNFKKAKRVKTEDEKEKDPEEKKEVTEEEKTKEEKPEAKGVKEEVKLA
Chain of HDAC8 enzyme (recombinant GST-HDAC8) (Q9BY41 whole entry): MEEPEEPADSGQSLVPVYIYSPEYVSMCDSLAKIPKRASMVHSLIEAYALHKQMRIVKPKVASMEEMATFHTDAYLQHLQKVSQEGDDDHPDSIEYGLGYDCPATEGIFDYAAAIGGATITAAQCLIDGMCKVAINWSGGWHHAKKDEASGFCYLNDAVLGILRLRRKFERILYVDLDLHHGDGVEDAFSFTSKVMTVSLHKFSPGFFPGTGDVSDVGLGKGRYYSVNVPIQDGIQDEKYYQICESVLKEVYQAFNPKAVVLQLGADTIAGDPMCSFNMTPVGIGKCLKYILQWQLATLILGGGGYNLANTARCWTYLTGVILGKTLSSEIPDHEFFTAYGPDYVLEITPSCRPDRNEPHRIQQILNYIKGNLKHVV

Structure (SMILES) | IC50 [1, 3] | IC50 [2, 4] | other results
O=C(/C=C/c1ccc2c(c1)nc(CCc1ccccc1)n2CCCO)NO [Compound 14, N-Hydroxy-3-[1-(3-hydroxy-propyl)-2-phenethyl-1H-benzimidazol-5-yl]-acrylamide] | 251 nM | 171 nM | 
Cn1c(CNC(=O)Cc2ccccc2)nc2cc(/C=C/C(=O)NO)ccc21 [Compound 54] |  | 100 nM | 
COc1cc(-c2nc3cc(/C=C/C(=O)NO)ccc3n2CC(O)CO)ccc1OCc1ccccc1 (centres unmarked) [Compound 7, N-Hydroxy-3-[2-(4-benzyloxy-3-methoxy-phenyl)-1-(2,3-hydroxy-propyl)-1H-benzimidazole-5-yl]-acrylamide] | 336 nM | 1520 nM | 
O=C(/C=C/c1ccc2c(c1)nc(-c1ccsc1)n2CCCO)NO [Compound 20, N-Hydroxy-3-[1-(3-hydroxy-propyl)-2-thiophen-3-yl-1H-benzimidazol-5-yl]-acrylamide] | 537 nM | 1910 nM | 
O=C(/C=C/c1ccc2c(c1)nc(CCc1ccccc1)n2CCN1CCCCC1)NO [Compound 67, N-Hydroxy-3-[2-phenethyl-1-(piperidin-1-yl-ethyl)-1H-benzimidazol-5-yl]-acrylamide] |  |  | IC50 [1, 5]: 254 nM; IC50 [2, 6]: 37 nM
CCn1cnc2cc(/C=C/C(=O)NO)ccc21 [Compound 39, N-Hydroxy-3-(1-Ethyl-1H-benzimidazol-5-yl)-acrylamide] |  | 1220 nM | 
O=C(/C=C/c1ccc2[nH]c(CCc3ccccc3)nc2c1)NO [Compound 50, N-Hydroxy-3-(2-phenethyl-1H-benzimidazol-5-yl)-acrylamide] |  | 173 nM | 
O=C(/C=C/c1ccc2c(c1)nc(CCc1ccccc1)n2CCc1ccccc1)NO [Compound 26, N-Hydroxy-3-(1,2-Diphenethyl-1H-benzimidazol-5-yl]-acrylamide] |  | 876 nM | 
CN(C)CC(C)(C)Cn1c([S+]([O-])Cc2ccccc2)nc2cc(/C=C/C(=O)NO)ccc21 (centres unmarked) [Compound 91] |  | 30 nM | 
CCn1c(CNCc2ccccc2)nc2cc(/C=C/C(=O)NO)ccc21 [Compound 64, N-Hydroxy-3-[2-(benzylamino-methyl)-ethyl-1H-benzimidazol-5-yl]-acrylamide] |  | 230 nM | 
CCn1c(C)nc2cc(/C=C/C(=O)NO)ccc21 [Compound 43, N-Hydroxy-3-(1-Ethyl-2-methyl-1H-benzimidazol-5-yl]-acrylamide] | 192 nM | 947 nM | 
COc1cc(Cn2c(CCc3ccccc3)nc3cc(/C=C/C(=O)NO)ccc32)cc(OC)c1OC [Compound 2, N-Hydroxy-3-[1-(3,4,5-trimethoxybenzyl)-2-(2-phenyl-ethyl)-1H-benzimidazol-5-yl]-acrylamide] | 355 nM | 26 nM | IC50 [1, 5]: 267 nM; IC50 [2, 6]: 43 nM; IC50 ([2]; Salt of CF3COOH, read-out: IC50 (HDAC1)): 49 nM
O=C(/C=C/c1ccc2c(c1)nc(-c1ccccn1)n2CCCO)NO [Compound 13, N-Hydroxy-3-[1-(3-hydroxy-propyl)-2-(2-pyridyl)-1H-benzimidazol-5-yl]-acrylamide] | 141 nM |  | 
CCn1c(CCCOc2ccccc2)nc2cc(/C=C/C(=O)NO)ccc21 [Compound 96, N-Hydroxy-3-[1-ethyl-2-(3-phenoxy-propyl)-1H-benzimidazol-5-yl]-acrylamide] |  | 125 nM | 
O=C(/C=C/c1ccc2c(c1)nc(CCc1ccccc1)n2CCc1ccccn1)NO [Compound 18] | 290 nM |  | 
CC(C)Cc1nc2cc(/C=C/C(=O)NO)ccc2n1CCc1ccccc1 [Compound 25, N-Hydroxy-3-(2-isobutyl-1-phenethyl-1H-benzimidazol-5-yl]-acrylamide] | 601 nM | 1320 nM | 
COc1cc(-c2nc3cc(/C=C/C(=O)NO)ccc3n2CCCO)ccc1OCc1ccccc1 [Compound 4, N-Hydroxy-3-[2-(4-benzyloxy-3-methoxy-phenyl)-1-(3-hydroxy-propyl)-1H-benzimidazole-5-yl]-acrylamide] | 790 nM | 1340 nM | 
O=C(/C=C/c1ccc2c(c1)nc(-c1ccncc1)n2CCO)NO [Compound 10, N-Hydroxy-3-[1-(2-hydroxy-ethyl)-2-(4-pyridyl)-1H-benzimidazol-5-yl]-acrylamide] | 883 nM | 2660 nM | 
CCN(CC)CCn1c(CCc2ccccc2)nc2cc(/C=C/C(=O)NO)ccc21 [Compound 66, N-Hydroxy-3-[1-(2-diethylamino-ethyl)-2-phenethyl-1H-benzimidazol-5-yl]-acrylamide] | 255 nM | 72 nM | 
CC(Cc1nc2cc(/C=C/C(=O)NO)ccc2n1CCCO)c1ccccc1 (centres unmarked) [Compound 1, N-Hydroxy-3-[1-(3-hydroxy-propyl)-2-(2-phenyl-propyl)-1H-benzimidazol-5-yl]-acrylamide] | 119 nM | 51 nM | 
COc1cccc(CCc2nc3cc(/C=C/C(=O)NO)ccc3n2CC(C)(C)CN(C)C)c1 [Compound 94, N-Hydroxy-3-(1-(3-dimethylamino-2,2-dimethyl-propyl)-2-[2-(3-methoxy-phenyl)-ethyl]-1H-benzimidazol-5-yl)-acrylamide] |  | 52 nM | 
CC(C)Cc1nc2cc(CCC(=O)NO)ccc2n1CCCO [Compound 29, N-Hydroxy-3-[1-(3-Hydroxy-propyl)-2-isobutyl-1H-benzimidazol-5-yl]-propionamide] | 34000 nM |  | 
CC(C)Cc1nc2cc(/C=C/C(=O)NO)ccc2n1CCCO [Compound 21, N-Hydroxy-3-[1-(3-hydroxy-propyl)-2-isobutyl-1H-benzimidazol-5-yl]-acrylamide] | 238 nM | 64 nM | 

Structure (SMILES) | IC50 [1, 3] | IC50 [2, 4] | other results
O=C(NO)c1ccc2c(c1)nc(CCc1ccccc1)n2CCCO [Compound 40, 1-(3-Hydroxy-propyl)-2-phenethyl-1H-benzimidazol-5-carboxylic acid hydroxyamide] | 441 nM |  | 
Cn1c(CCCc2ccccc2)nc2cc(/C=C/C(=O)NO)ccc21 [Compound 52, N-Hydroxy-3-[1-methyl-2-(3-phenyl-propyl)-1H-benzimidazol-5-yl]-acrylamide] |  | 160 nM | 
O=C(/C=C/c1ccc2c(c1)nc(CCc1ccccc1)n2CCCN1CCCC1)NO [Compound 82, N-Hydroxy-3-[2-phenethyl-1-(3-pyrrolidin-1-yl-propyl)-1H-benzimidazol-5-yl]-acrylamide] |  | 304 nM | 
O=C(/C=C/c1ccc2c(c1)nc(COCc1ccccc1)n2CCc1cccnc1)NO [Compound 28] | 300 nM |  | 
O=C(/C=C/c1ccc2c(c1)nc(CCc1ccccc1)n2CCc1cccnc1)NO [Compound 27, N-Hydroxy-3-(2-phenethyl-1-(2-pyridin-3-yl-ethyl)-1H-benzimidazol-5-yl]-acrylamide] | 329 nM | 92 nM | 
CCn1c(CCNCc2ccccc2)nc2cc(/C=C/C(=O)NO)ccc21 [Compound 74, N-Hydroxy-3-[2-(2-benzylamino-ethyl)-1-ethyl-1H-benzimidazol-5-yl]-acrylamide] |  | 371 nM | 
CN(C)CCCCn1c(CCc2ccccc2)nc2cc(/C=C/C(=O)NO)ccc21 [Compound 57, N-Hydroxy-3-[1-(4-dimethylamino-butyl)-2-phenethyl-1H-benzimidazol-5-yl]-acrylamide] |  | 153 nM | 
O=C(/C=C/c1ccc2c(c1)nc(-c1ccncc1)n2CCCO)NO [Compound 11, N-Hydroxy-3-[1-(3-hydroxy-propyl)-2-(4-pyridyl)-1H-benzimidazol-5-yl]-acrylamide] | 161 nM | 846 nM | 
CC(C)Cc1nc2cc(/C=C/C(=O)NO)ccc2n1CCc1ccccn1 [Compound 22] | 234 nM |  | 
COCCCn1c(CCc2ccccc2)nc2cc(/C=C/C(=O)NO)ccc21 [Compound 15] | 313 nM |  | 
CN(C)CC(C)(C)Cn1c(SCc2ccccc2)nc2cc(/C=C/C(=O)NO)ccc21 [Compound 89, N-Hydroxy-3-[2-benzylsulfanyl-1-(3-dimethylamino-2-2,dimethyl-propyl)-1H-benzimidazol-5-yl]-acrylamide] |  | 116 nM | 
CCCn1cnc2cc(/C=C/C(=O)NO)ccc21 [Compound 37, N-Hydroxy-3-(1-propyl-1H-benzimidazol-5-yl}-acrylamide] |  | 897 nM | 
Cn1cnc2cc(/C=C/C(=O)NO)ccc21 [Compound 49, N-Hydroxy-3-(1-methyl-1H-benzimidazol-5-yl)-acrylamide] |  | 1400 nM | 
CN(C)CC(C)(C)Cn1c(CCc2cccnc2)nc2cc(/C=C/C(=O)NO)ccc21 [Compound 86, N-Hydroxy-3-[1-(3-Dimethylamino-2,2-dimethyl-propyl)-2-(2-pyridin-3-yl-ethyl)-1H-benzimidazol-5-yl]-acrylamide] |  | 400 nM | 
CN(C)CCCn1c(CCc2ccccc2)nc2cc(/C=C/C(=O)NO)ccc21 [Compound 63, N-Hydroxy-3-[1-(3-dimethylamino-propyl)-2-phenethyl-1H-benzimidazol-5-yl]-acrylamide] |  | 162 nM | 
CCn1c(CCCc2c[nH]c3ccccc23)nc2cc(/C=C/C(=O)NO)ccc21 [Compound 93, N-Hydroxy-3-(1-ethyl-2-[3-(1H-indol-3-yl)-propyl]-1H-benzimidazol-5-yl)-acrylamide] |  | 65 nM | 
Cn1c(CNCc2ccccc2)nc2cc(/C=C/C(=O)NO)ccc21 [Compound 60, N-Hydroxy-3-[2-(benzylamino-methyl)-1-methyl-1H-benzimidazol-5-yl]-acrylamide] |  | 116 nM | 
CCCn1c(CCc2ccccc2)nc2cc(/C=C/C(=O)NO)ccc21 [Compound 36, N-Hydroxy-3-(2-phenethyl-1-propyl-1H-benzimidazol-5-yl}-acrylamide] |  | 227 nM | 
CCn1c(Cc2ccccc2)nc2cc(/C=C/C(=O)NO)ccc21 [Compound 92, N-Hydroxy-3-(2-benzyl-1-ethyl-1H-benzimidazol-5-yl)-acrylamide] |  | 168 nM | 
CC(Cc1nc2cc(/C=C/C(=O)NO)ccc2n1CCc1cccnc1)c1ccccc1 (centres unmarked) [Compound 41] | 159 nM |  | 
O=C(/C=C/c1ccc2c(c1)nc(CCc1ccccc1)n2CC(O)CO)NO (centres unmarked) [Compound 8] | 454 nM |  | 
O=C(/C=C/c1ccc2[nH]cnc2c1)NO [Compound 51, N-Hydroxy-3-(1H-benzimidazol-5-yl)-acrylamide] |  | 896 nM | 
